From ChEMBL document CHEMBL3507680, “University of Dundee, Gates Library screen for HepG2 cell viability”
Values joined by “and” are separate entries in the source; they are usually repeats but may differ in a detail not shown here. Equal entries are not always repeated.

How the values were obtained:
[1] = Human HepG2 cell viability assay in 384 well format; assay type: toxicity, cell-based; parameters: dose 125 nL, time 70.5 hour; concentration not given beside the values; conditions: HepG2 cells, read-out: Inhibition
[2] = Human HepG2 cell viability dose-response assay; assay type: toxicity, cell-based

Row | Structure (SMILES) | cytotoxicity at 70.5 h [1] [%] | BOTTOM [2] | HILLSLOPE [2] | TOP [2] | pXC50 [2]
1 | CCCc1nc2c(c(C)c(C)n2Cc2ccccn2)c(N)c1CC | 80.2 | 13.8 and 17.26 | 1.43 and 1.529 | 100 | 5.166 and 5.178
2 | COc1cc(NC(=O)C2CC(=O)N(c3cccc(Br)c3)C2)ncn1 (stereo not drawn) | 91.5 | 13.61 and 20.88 | 5.533 and 3.735 | 100.7 and 101.2 | 5.491 and 5.506
3 | c1cncc(CN2CCCn3nnc(CN4CCCCC4)c3C2)c1 | 65.6 | 0 | 0 | 0 | < 4.53
4 | O=C(C[C@@H]1COC[C@H]2CN(C3CCOCC3)C[C@@H]12)Nc1cnccn1 | 76.4 | 0 | 0 | 0 | < 4.53
5 | COC[C@H]1CCC[C@]12CN(Cc1cccc(C)n1)CCO2 | 63.1 | 0 | 0 | 0 | < 4.53
6 | CCS(=O)(=O)N1CCc2ccc(NC(=O)Nc3cccc(SC)c3)cc21 | 63.9 | -6.506 and -6.611 | 1.266 and 1.157 | 100 | 5.029 and 4.966
7 | CSc1ccc(NC(=O)Nc2ccc3c(c2)N(S(C)(=O)=O)CC3)cc1 | 68.5 | -10.17 and -8.332 | 0.8924 and 0.8709 | 100 | 4.975 and 4.922
8 | CCc1ccc(-c2cc(C(F)(F)F)nc(N3CCC(N)CC3)n2)cc1 | 101 | 0.817 and 1.062 | 8.779 and 6.129 | 102.2 and 102.5 | 5.566 and 5.542
9 | CC(C)Nc1cc(-c2c[nH]nc2C2CCN(C(=O)C3CC3)C2)ccn1 (stereo not drawn) | 96.7 | – | 3.535 and 2.719 | 97.3 and 97.69 | 6.519 and 6.486
10 | CC(C)CNc1cc(-c2c[nH]nc2C2CCN(C(=O)C3CC3)C2)ccn1 (stereo not drawn) | 95.1 | -0.825 and -1.513 | 7.855 and 3.586 | 97.39 and 97.86 | 6.385 and 6.436
11 | COc1ccc(CNC(Cc2ccsc2)c2ccc(C)cn2)c(OC)c1 (stereo not drawn) | 85.3 | – | 2.726 and 2.464 | 91.22 and 91.65 | 5.292 and 5.344
12 | O=C(c1cccc2cccnc12)N1CC[C@@]2(CCCO2)[C@@H](O)C1 | 74.5 | -1.598 and -1.635 | 1.904 and 1.967 | 100 | 4.773 and 4.744
13 | CC(C)OCCN1CCC(Nc2nccnc2C#N)CC1 | 62.9 | -6.463 and -12.72 | 1.108 and 0.9682 | 100 | 5.071 and 5.086
14 | CC(C)N(C)C(=O)c1ccc(CNc2ccncc2Cl)cc1 | 74.8 | 0 | 0 | 0 | < 4.53
15 | CC(C)n1ccc(C(=O)NCC(O)c2c(Cl)cccc2Cl)n1 (stereo not drawn) | 65.8 | 0 | 0 | 0 | < 4.53
16 | CN(C(=O)[C@H]1CSCN1C(=O)OC(C)(C)C)C1CC1 | 73.6 | 0 | 0 | 0 | < 4.53
17 | Cc1cc(C)cc(C(=O)NCCCNc2ncccn2)c1 | 101 | -7.868 and -9.506 | 17.28 and 6.436 | 100.1 and 99.9 | 5.413
18 | COCc1noc(-c2ccc(N(C)Cc3ncccc3C)nc2)n1 | 73.3 | -13.69 and -12.76 | 1.85 and 1.799 | 100 | 5.092
19 | CC1(C)Cc2nc(C(C)(C)C)ncc2C(NC(=O)C2(N)CC2)C1 (stereo not drawn) | 105 | 0 | 0 | 0 | < 4.53
20 | C=Cc1ccc(CN2C(=O)C3(CCNCC3)Nc3ccccc32)cc1 | 102 | -4.877 and -3.437 | 10.74 and 12.71 | 102 | 5.033 and 5.016
21 | Cc1nc(Nc2nccs2)cc(C2CCCN2)n1.Cl (stereo not drawn) | 101 | 11.4 and 11.68 | 4.445 and 3.614 | 100.1 and 100.5 | 5.52 and 5.57
22 | COc1nn(C)c2c1CCCN(C(=O)c1ccc3c(c1)OCO3)C2.O=C(O)C(F)(F)F | 77.9 | 0 | 0 | 0 | < 4.53
